Measured values as given in patent US20250002865A1, “METHOD FOR PRODUCING ORGANISM, AND METHOD FOR PROMOTING DIFFERENTIATION OF HUMAN ADIPOSE-DERIVED STEM CELLS INTO VASCULAR ENDOTHELIAL CELLS” (TOPPAN Holdings Inc., priority 2021, published 2025).
Several values for one entry are separate records, joined by “and”; a condition that tells them apart may be missing. Equal entries are not always repeated.

How the values were obtained:
[1] = system: human adipose stem cell (ADSC); details: 5 μM in EGM-2 for 7 days, then 24 hours on Matrigel; compared with EGM-2 without ALK5 inhibitor
Experimental: The culture medium was changed every 2 days, culture was carried out for 7 days. Thereafter, the ADSC was separated from the dish using trypsin/EDTA and suspended in 1 mL of DMEM, and the number of cells was counted. Further, the recovered ADSC was seeded on a 24-well plate previously coated with Matrigel at concentrations of 1.0×10^5 cells/dish, 1.5×10^5 cells/dish, and 2.0×10^5 cells/dish, and incubated at 37° C. for 24 hours. Thereafter, the morphology of the tissue construct was evaluated with a phase contrast microscope.

[2] = system: human adipose stem cell (ADSC); details: 5 μM in EGM-2, 7 days, compared with EGM-2 without ALK5 inhibitor
Experimental: The culture medium was changed every 2 days, and culture was carried out for 7 days after seeding to obtain a tissue construct.
Fluorescence imaging of the tissue construct was carried out according to the following procedure. A transwell containing the obtained tissue construct was transferred to a 24-well plate. After washing with 2 mL of PBS, the tissue was fixed overnight under the condition of 4° C. using 2 mL of 4% PFA. Washing was carried out three times using 2 mL of PBS. Cells were subjected to permeabilization treatment for 7 minutes under room temperature conditions by using 0.05% Triton/PBS (500 μL in the transwell and 500 μL outside the transwell), and washing was carried out three times using 2 mL of PBS.
The tissue was subjected to blocking treatment for 1 hour under room temperature conditions by using a 1% BSA/PBS solution (500 μL in the transwell and 500 μL outside the transwell). The BSA solution was aspirated, and 100 μL of a primary antibody solution (an anti-CD31 antibody diluted 100-fold in a 1% BSA/PBS solution) was added (50 μL in the transwell and 50 μL outside the transwell). A wet tissue paper was placed under the plate, and the plate was covered with an aluminum foil and incubated overnight under the condition of 4° C. […]

[3] = system: human adipose stem cell (ADSC); details: 5 μM in EGM-2, 7 days
Experimental: The culture medium was changed every 2 days, and culture was carried out for 7 days to obtain a tissue construct. Thereafter, the ADSC was gently detached while leaving cell surface proteins, by incubation for 5 minutes using 0.25% Trypsin, recovered from the dish, and suspended in 1 mL of DMEM, and the number of cells was counted.
The ratio of vascular endothelial cells in the tissue construct was analyzed by the flow cytometry analysis using BD Facsmelody (registered trademark) cell sorter (Becton, Dickinson and Company). The tissue construct recovered as described above was centrifuged (100 g, 5 minutes, 4° C.). […] Thereafter, cells were centrifuged (100 g, 5 minutes, 4° C.) to wash the cells, and the pelleted cells were suspended in a buffer, and 10,000 events were recorded. Further, an isotype control for the conjugated antibody was measured simultaneously. […]
The ratio of vascular endothelial cells in the sample was analyzed by the flow cytometry analysis using BD Facsmelody (registered trademark) cell sorter (Becton, Dickinson and Company). […] Thereafter, cells were centrifuged (100 g, 5 minutes, 4° C.) to wash the cells, and the pelleted cells were suspended in a buffer, and 10,000 events were recorded. Further, an isotype control for the conjugated antibody was measured simultaneously. […]

[4] = system: cell balls of mature adipocytes and cells recovered from ADSC tissue construct; details: VEGF 50 ng/mL in EGM-2 with 10 μg/mL insulin and 5 μM ALK-5 inhibitor, 7 days
Experimental: Regarding the produced tissue construct, 5 μL (equivalent to one cell ball) of the mixture (equivalent to 40 cell balls) was seeded on each well of a low-adhesion 96-well plate (IWAKI #4860-800LP).
The cell ball seeded in the low-adhesion 96-well plate was incubated in a 37° C. incubator for 15 minutes to carry out gelation, and 300 μL of EGM-2 containing insulin of a final concentration of 10 μg/mL, an AKL-5 inhibitor of 5 μM, and VEGF of 50 ng/mL was added thereto.
(§1) After 24 hours of culture, cells were transferred to a low-adhesion 24-well plate (IWAKI #4820-800LP), and 2 mL of the above EGM-2 or KBM was added thereto. The culture medium was changed every 2 to 3 days until the 7th day of culture.
The fluorescence imaging of the tissue construct was carried out as in Production Example 4, except that various primary antibody solutions and the corresponding secondary antibody solutions were used. […]
For observation, the cell ball was placed directly on a complete plate of a Confocal Quantitative Image Cytometer CQ1 (Yokogawa Electric Corporation), and the stained tissue construct was observed using the Confocal Quantitative Image Cytometer CQ1. […]

[5] = system: cell balls of mature adipocytes and cells recovered from ADSC tissue construct
Experimental: Isolated ADSC was suspended in an EGM-2 medium, seeded in a 10-cm dish, and incubated at 37° C. The culture medium was changed every 2 days, and culture was carried out for 7 days to obtain a tissue construct. From this tissue construct, cells including ADSC, ADSC-derived vascular endothelial cells, and vascular endothelial progenitor cells were recovered.
The total number of cells of the tissue construct (cell ball) used was 4.0×10^4 cells/ball, and the mature adipocytes and the above-described recovered cells were used a ratio of 3:2.5 for the production.
The cell ball seeded in the low-adhesion 96-well plate was incubated in a 37° C. incubator for 15 minutes to carry out gelation, and 300 μL of EGM-2 or KBM was added thereto. […] In addition, EGM-2 or KBM, containing only insulin of a final concentration of 10 μg/mL and an ALK-5 inhibitor of 5 μM, was used as a control.
as §1
The fluorescence imaging of the tissue construct was carried out as in Production Example 4, except that an anti-von Willebrand factor (vWF) antibody diluted 100-fold in a 1% BSA/PBS solution was used as a primary antibody solution and an Alexa Fluor 647-labeled anti-rabbit IgG antibody solution diluted 200-fold in 1% BSA/PBS solution was used as a secondary antibody solution. The vWF was used as a marker for vascular endothelial cells. In addition, for observation, the cell ball was placed directly on a complete plate of a Confocal Quantitative Image Cytometer CQ1 (Yokogawa Electric Corporation), and the stained tissue construct was observed using the Confocal Quantitative Image Cytometer CQ1 with laser excitation light at 640 nm.

| Molecule | lumen formation / vascular network on Matrigel [1] | vascular network formation by CD31 staining [2] | ratio of vascular endothelial cells (CD31+) based on number of total cells recovered [3] | proportion of vWF-positive vs CD34-positive cells among total CD31-positive cells [4] | vascular network formation in cell ball [4] | vascular network, number of branches of blood vessels, vs control without VEGF ([5]; VEGF 0.5, 20, 50 or 100 ng/mL in EGM-2 or KBM with 10 μg/mL insulin and 5 μM ALK-5 inhibitor, 7 days) | vascular network, number of branches of blood vessels, vs culture medium containing leptin ([5]; VEGF-containing medium vs leptin 1 μg/mL, both with insulin and 5 μM ALK-5 inhibitor, 7 days) | vascular network, amount of blood vessels among VEGF concentrations ([5]; culture medium containing more than 20 ng/mL of VEGF) |
| --- | --- | --- | --- | --- | --- | --- | --- | --- |
| Cc1cccc(-c2n[nH]cc2-c2ccc3ncccc3n2)n1 [ALK5 inhibitor, 2-[3-(6-methyl-2-pyridinyl)-1H-pyrazol-4-yl]-1,5-naphthyridine] | lumen formation is further progressed | a vascular network in which the number of branches is larger is formed | 29.29% and 32.4% | – | – | – | – | – |
| VEGF | – | – | – | the proportion of vWF-positive cells with respect to the total CD31-positive cells was higher than the proportion of CD34-positive cells | a vascular network was also formed | the number of branches of blood vessels is large as compared with the control cell ball | the number of branches of blood vessels is large as compared with the cell ball cultured in a culture medium containing leptin | a vascular network having still more blood vessels was formed |
